# Assay results as given in patent US20260256742A1, “ANDROGEN RECEPTOR ANTAGONISTS FOR THE TREATMENT OF PATIENTS WITH BIOCHEMICAL RECURRENCE OF HORMONE SENSITIVE PROSTATE CANCER” (BAYER CONSUMER CARE AG, priority 2023, published 2026).
# Entries after “also recorded” stand apart in the source; their conditions may differ.
# Experiments:
# [1] = system: nine CYP isoforms; details: in vitro; cited from earlier work
# [2] = system: prostate cancer cells rendered castration resistant via overexpression of AR; details: cited from earlier work
# [3] = system: AR; details: cited from earlier work
# [4] = target: P-glycoprotein (P-gp) (Homo sapiens, UniProt P08183); details: cited from earlier work
# [5] = rat, in vivo
# [6] = system: CYP2B6; details: in vitro; cited from earlier work
# [7] = target: T1, BCRP (Homo sapiens, UniProt Q9UNQ0); details: in vitro; cited from earlier work
# T1 sequence (Q9UNQ0 1-655): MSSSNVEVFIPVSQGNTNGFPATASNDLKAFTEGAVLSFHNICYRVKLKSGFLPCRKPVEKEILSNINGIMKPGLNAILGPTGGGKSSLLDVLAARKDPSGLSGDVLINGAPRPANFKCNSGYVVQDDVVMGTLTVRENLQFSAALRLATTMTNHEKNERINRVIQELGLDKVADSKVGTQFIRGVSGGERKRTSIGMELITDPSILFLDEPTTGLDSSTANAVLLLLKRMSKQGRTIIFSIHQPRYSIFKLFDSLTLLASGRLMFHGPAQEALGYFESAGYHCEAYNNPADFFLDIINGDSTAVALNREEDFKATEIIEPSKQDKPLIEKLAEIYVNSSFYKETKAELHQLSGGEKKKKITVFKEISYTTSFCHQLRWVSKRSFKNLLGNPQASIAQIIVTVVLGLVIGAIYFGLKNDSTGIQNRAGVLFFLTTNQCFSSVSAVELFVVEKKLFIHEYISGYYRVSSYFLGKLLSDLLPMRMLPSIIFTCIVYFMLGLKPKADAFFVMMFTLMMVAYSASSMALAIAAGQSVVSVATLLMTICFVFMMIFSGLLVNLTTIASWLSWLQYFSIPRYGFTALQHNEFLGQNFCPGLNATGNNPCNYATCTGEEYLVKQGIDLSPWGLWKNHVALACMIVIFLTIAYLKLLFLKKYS
# [8] = system: nine CYP isoforms; assay: in vitro CYP inhibition; type: in vitro ADME; details: rank order and mechanistic static assessment
# [9] = target: T2, organic anion-transporting polypeptide (OATP)1B1 (Homo sapiens, UniProt Q9Y6L6); details: in vitro; cited from earlier work
# T2 sequence (Q9Y6L6 1-691): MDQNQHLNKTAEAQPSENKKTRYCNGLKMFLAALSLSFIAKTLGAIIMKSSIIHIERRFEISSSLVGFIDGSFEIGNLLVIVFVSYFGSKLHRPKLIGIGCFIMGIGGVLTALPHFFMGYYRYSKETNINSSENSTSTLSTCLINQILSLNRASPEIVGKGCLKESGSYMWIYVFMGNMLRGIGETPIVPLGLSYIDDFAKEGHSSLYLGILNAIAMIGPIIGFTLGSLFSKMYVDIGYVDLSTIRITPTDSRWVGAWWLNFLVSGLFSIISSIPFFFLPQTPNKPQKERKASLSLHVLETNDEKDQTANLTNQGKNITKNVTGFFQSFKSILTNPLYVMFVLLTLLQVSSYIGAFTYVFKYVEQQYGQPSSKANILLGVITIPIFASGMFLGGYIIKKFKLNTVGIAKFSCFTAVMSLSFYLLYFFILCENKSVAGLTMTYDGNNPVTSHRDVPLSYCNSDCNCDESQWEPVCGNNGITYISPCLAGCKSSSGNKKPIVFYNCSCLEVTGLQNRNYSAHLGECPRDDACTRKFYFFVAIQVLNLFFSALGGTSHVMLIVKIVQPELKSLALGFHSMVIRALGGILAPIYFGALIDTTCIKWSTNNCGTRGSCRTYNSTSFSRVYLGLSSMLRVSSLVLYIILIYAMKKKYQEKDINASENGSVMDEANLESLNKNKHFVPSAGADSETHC
# [10] = target: MATE2-K (Homo sapiens, UniProt Q86VL8); details: in vitro; cited from earlier work
# [11] = system: human prostate cancer xenograft models; details: cited from earlier work
# [12] = target: P-gp (Homo sapiens, UniProt P08183); details: in vitro; cited from earlier work
# [13] = rats; cited from earlier work
# [14] = in vitro and in vivo; cited from earlier work
# [15] = all investigated species including man; cited from earlier work
# [16] = target: Cytochrome P450 (CYP)3A4 (Homo sapiens, UniProt P08684); details: in vitro; cited from earlier work
# Sequence of Cytochrome P450 (CYP)3A4 (P08684 whole entry): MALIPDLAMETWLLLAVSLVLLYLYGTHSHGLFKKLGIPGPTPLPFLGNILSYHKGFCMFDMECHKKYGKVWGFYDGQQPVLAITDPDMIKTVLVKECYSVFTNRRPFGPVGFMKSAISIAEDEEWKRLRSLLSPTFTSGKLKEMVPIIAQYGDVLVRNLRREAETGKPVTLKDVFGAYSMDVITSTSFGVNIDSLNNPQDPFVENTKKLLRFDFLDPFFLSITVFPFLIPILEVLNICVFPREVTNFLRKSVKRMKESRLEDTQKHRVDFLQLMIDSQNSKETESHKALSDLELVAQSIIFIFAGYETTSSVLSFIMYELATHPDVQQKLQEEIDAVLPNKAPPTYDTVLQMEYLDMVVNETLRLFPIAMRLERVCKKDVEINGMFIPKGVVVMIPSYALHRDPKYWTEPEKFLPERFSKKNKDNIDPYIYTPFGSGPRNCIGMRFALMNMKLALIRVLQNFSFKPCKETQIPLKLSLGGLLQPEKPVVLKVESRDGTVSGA
# Sequence of P-glycoprotein (P-gp) (P08183 whole entry): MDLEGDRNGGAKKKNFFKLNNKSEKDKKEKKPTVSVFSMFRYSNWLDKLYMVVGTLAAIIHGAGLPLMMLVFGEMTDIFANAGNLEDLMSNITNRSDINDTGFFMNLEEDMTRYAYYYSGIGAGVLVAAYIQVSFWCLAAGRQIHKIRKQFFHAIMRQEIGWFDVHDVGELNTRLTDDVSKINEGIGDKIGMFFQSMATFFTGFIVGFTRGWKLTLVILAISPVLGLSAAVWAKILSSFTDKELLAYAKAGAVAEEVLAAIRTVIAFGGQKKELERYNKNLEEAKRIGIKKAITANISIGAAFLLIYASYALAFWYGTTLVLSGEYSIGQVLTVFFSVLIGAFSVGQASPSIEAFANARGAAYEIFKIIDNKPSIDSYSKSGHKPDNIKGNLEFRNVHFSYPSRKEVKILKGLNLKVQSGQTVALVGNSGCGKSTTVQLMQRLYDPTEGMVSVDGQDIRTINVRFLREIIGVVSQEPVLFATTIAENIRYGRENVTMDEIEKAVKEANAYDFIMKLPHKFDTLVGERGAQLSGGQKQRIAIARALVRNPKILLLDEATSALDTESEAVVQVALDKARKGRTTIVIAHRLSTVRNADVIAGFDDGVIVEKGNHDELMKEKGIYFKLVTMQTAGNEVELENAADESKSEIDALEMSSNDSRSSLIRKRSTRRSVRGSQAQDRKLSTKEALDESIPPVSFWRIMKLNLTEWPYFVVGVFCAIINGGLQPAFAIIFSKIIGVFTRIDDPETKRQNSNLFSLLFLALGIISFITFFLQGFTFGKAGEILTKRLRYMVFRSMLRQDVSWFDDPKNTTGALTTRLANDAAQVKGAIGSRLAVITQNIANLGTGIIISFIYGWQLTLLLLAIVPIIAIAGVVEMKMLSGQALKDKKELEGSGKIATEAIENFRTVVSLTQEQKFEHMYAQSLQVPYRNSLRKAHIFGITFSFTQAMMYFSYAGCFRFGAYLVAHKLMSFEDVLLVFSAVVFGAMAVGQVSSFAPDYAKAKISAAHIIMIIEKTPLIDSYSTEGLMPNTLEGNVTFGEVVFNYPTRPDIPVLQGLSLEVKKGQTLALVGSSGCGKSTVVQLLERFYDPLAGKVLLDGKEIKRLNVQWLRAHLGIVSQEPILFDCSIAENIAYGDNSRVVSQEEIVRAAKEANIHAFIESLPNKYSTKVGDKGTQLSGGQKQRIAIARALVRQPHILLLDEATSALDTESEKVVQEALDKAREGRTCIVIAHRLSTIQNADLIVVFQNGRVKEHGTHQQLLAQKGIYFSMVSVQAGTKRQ
# Sequence of P-gp (P08183 whole entry): as above
# Sequence of MATE2-K (Q86VL8 1-566 isoform Q86VL8-3): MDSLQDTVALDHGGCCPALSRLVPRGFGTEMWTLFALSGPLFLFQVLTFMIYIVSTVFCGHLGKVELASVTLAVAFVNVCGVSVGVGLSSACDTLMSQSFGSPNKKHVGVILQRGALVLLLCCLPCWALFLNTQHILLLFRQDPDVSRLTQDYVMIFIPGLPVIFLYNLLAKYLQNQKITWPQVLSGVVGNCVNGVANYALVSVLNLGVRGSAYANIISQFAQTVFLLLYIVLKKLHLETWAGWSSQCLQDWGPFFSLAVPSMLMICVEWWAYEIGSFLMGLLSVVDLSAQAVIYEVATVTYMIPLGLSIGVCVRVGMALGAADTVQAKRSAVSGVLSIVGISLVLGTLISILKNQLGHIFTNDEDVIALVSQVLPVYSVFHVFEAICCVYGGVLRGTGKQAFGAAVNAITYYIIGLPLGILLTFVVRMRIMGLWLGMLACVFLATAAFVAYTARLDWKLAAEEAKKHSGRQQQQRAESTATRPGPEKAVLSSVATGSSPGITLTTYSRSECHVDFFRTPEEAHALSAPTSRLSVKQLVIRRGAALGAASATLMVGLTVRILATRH
compound,measurement,setting,value
CC(O)c1cc(C(=O)N[C@@H](C)Cn2ccc(-c3ccc(C#N)c(Cl)c3)n2)[nH]n1 (stereo partly drawn) [Darolutamide],inhibition of enzymatic activity of nine CYP isoforms,[1],not inhibited or slightly inhibited
same,agonist activity with AR overexpression,[2],lacks the partial agonist activity
same,binding affinity to the AR,[3],greater affinity than bicalutamide; also recorded: high affinity
same,substrate for P-gp,[4],substrate
same,additional changes to reproductive tissues,[5],"minimal increase in vacuolation of the pituitary gland, atrophy and secretory reduction in seminal vesicles and mammary glands"
same,deaths during the treatment period,[5],No deaths occurred
same,other adverse effects,[5],No other adverse effects were observed
same,reversibility of changes in the male reproductive organs,[5],reversed or partially resolved
same,induction of CYP2B6 activity,[6],no relevant induction
same,inhibition of BCRP-mediated transport,[7],observed
same,risk of clinically relevant DDIs via CYP inhibition,[8],very low
same,inhibition of OATP1B1-mediated transport,[9],observed
same,inhibition of MATE2-K-mediated transport,[10],observed
same,tumor regression,[11]; non-castrate hormone-sensitive and bicalutamide-resistant human prostate cancer xenograft models,partial or complete tumor regression
same,prostate tumor progression,[11]; several cell line- and patient derived models,inhibits prostate tumor progression
same,inhibition of P-gp-mediated transport,[12],observed
same,absorption,[13],complete and rapid absorption
same,bioavailability,[13],high bioavailability
same,"interconversion of the diastereoisomers (S,R)- and (S,S)- via keto-darolutamide",[14],Rapid interconversion
same,major metabolites observed in plasma,[15],"Only one major metabolite, keto-darolutamide"
same,main metabolic pathway,[16],mainly metabolized via oxidative biotransformation catalyzed by Cytochrome P450 (CYP)3A4
